Results on 29 compounds are retold here after patent US10758534B2 (Vertex Pharmaceuticals Incorporated, priority 2014, dated 2020).

Some results are limits rather than exact numbers.

T1 sequence (P13569 with tags, fused parts or gaps DEL508-508): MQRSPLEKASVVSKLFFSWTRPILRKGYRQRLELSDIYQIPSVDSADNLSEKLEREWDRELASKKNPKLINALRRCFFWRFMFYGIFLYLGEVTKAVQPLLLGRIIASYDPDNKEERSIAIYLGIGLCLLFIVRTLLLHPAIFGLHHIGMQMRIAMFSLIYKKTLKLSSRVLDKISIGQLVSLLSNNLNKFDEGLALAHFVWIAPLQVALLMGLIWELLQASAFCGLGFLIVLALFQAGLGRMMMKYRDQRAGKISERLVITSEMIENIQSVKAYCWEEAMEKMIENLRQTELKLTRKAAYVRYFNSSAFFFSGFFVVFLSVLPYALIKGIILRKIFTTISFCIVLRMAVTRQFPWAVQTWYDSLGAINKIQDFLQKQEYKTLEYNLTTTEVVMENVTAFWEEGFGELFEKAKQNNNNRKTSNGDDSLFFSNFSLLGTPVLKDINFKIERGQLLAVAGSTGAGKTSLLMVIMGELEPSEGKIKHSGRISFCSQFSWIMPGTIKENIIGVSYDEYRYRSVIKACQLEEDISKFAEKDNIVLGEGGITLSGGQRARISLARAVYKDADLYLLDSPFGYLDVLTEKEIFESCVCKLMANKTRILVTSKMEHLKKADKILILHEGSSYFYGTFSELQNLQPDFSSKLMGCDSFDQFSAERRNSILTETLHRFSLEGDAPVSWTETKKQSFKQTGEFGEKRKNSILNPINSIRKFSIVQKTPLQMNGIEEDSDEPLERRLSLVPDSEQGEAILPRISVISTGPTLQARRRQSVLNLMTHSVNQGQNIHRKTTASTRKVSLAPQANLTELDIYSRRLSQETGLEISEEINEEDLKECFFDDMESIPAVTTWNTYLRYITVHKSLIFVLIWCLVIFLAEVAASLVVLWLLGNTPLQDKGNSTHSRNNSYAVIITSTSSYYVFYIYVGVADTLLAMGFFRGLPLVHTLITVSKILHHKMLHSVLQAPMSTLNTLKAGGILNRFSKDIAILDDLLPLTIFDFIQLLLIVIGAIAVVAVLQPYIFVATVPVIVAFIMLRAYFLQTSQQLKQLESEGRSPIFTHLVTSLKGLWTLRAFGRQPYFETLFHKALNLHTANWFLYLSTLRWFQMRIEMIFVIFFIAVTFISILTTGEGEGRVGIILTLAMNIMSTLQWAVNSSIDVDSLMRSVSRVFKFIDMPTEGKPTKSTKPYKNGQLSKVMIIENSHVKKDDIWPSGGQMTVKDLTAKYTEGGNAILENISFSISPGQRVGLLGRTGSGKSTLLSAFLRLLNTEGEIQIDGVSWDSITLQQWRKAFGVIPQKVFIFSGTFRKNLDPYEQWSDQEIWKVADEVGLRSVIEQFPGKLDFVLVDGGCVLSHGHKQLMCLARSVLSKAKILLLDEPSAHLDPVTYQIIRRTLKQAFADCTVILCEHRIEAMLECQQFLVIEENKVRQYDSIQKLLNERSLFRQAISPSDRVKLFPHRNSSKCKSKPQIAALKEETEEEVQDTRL

The first test concerns the target T1, F508del (Homo sapiens, UniProt P13569, DEL508-508).
T1 construct: expressed in transfected cells
The test is described as follows: Protocol 2: FRET membrane potential optical assay (VIPR), identification of correction compounds. The conditions noted are these: F508del CFTR modulator activity; compounds of Table 1. The test is classed as cell-based. A digest of the protocol: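 Correction of the F508del trafficking defect is scored as forskolin (10 μM)/genistein (20 μM)-stimulated Cl^− efflux in NIH3T3 mouse fibroblasts after a 16 hr, 37° C. compound exposure. Depolarization was followed optically using voltage-sensing FRET dyes.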
As for `CC(C)COc1cc(F)cc(-c2ccc(C(=O)NS(=O)(=O)c3cccc(N)n3)c(N3CCC(C)C(C)C3)n2)c1` (single isomer, unassigned) [Compound 2178, N-[(6-amino-2-pyridyl)sulfonyl]-2-(3,4-dimethyl-1-piperidyl)-6-(3-fluoro-5-isobutoxy-phenyl)pyridine-3-carboxamide], the 30% effect concentration (EC30) result is “+++ (“+++” means <3 uM)”.

Staying with this test, now noted: F508del CFTR modulator activity; compounds of Table 1; read-out: EC30.
For the compound `CC1CN(c2ncccc2C(=O)NS(=O)(=O)c2cccc(NC(C)c3cccc4ccccc34)n2)C(C)(C)C1` (centres unmarked) [Compound 2049, N—[[6-[1-(1-naphthyl)ethylamino]-2-pyridyl]sulfonyl]-2-(2,2,4-trimethylpyrrolidin-1-yl)pyridine-3-carboxamide], the EC30 is less than 3000 nM.
Same read-out and setting: the result for `CC1CN(c2ncccc2C(=O)NS(=O)(=O)c2cccc(O[C@@H](C)c3ccccc3)n2)C(C)(C)C1` (stereo partly drawn) [Compound 2186, N—[[6-[(1S)-1-phenylethoxy]-2-pyridyl]sulfonyl]-2-(2,2,4-trimethylpyrrolidin-1-yl)pyridine-3-carboxamide] reads less than 3000 nM; that for `CC(C)=CCOc1cccc(S(=O)(=O)NC(=O)c2cccnc2N2CC(C)CC2(C)C)n1` (centres unmarked) [Compound 2648, N—[[6-(3-methylbut-2-enoxy)-2-pyridyl]sulfonyl]-2-(2,2,4-trimethylpyrrolidin-1-yl)pyridine-3-carboxamide], less than 3000 nM.
Still for that read-out and setting: for `CC1CN(c2ncccc2C(=O)NS(=O)(=O)c2cccc(N3CCN(Cc4ccncc4)CC3)n2)C(C)(C)C1` (centres unmarked) [Compound 2175, N—[[6-[4-(4-pyridylmethyl)piperazin-1-yl]-2-pyridyl]sulfonyl]-2-(2,2,4-trimethylpyrrolidin-1-yl)pyridine-3-carboxamide] the value was 3000 to 10000 nM; for `COc1cc(F)ccc1-c1ccc(C(=O)NS(=O)(=O)c2cccnc2N)c(N2C[C@@H](C)CC2(C)C)n1` [Compound 2482, N-[(2-amino-3-pyridyl)sulfonyl]-6-(4-fluoro-2-methoxy-phenyl)-2-[(4S)-2,2,4-trimethylpyrrolidin-1-yl]pyridine-3-carboxamide], less than 3000 nM.
Same read-out and setting: the result for `COc1ccc(F)cc1-c1ccc(C(=O)NS(=O)(=O)c2cccnc2N)c(N2C[C@@H](C)CC2(C)C)n1` [Compound 2189, N-[(2-amino-3-pyridyl)sulfonyl]-6-(5-fluoro-2-methoxy-phenyl)-2-[(4S)-2,2,4-trimethylpyrrolidin-1-yl]pyridine-3-carboxamide] reads less than 3000 nM; that for `CC1CN(c2ncccc2C(=O)NS(=O)(=O)c2cccc(N3CCN(c4ncccn4)CC3)n2)C(C)(C)C1` (centres unmarked) [Compound 2621, N—[[6-(4-pyrimidin-2-ylpiperazin-1-yl)-2-pyridyl]sulfonyl]-2-(2,2,4-trimethylpyrrolidin-1-yl)pyridine-3-carboxamide], 3000 to 10000 nM.
`COc1cc(C)cc(-c2cnc(N3CC(C)CC3(C)C)c(C(=O)NS(=O)(=O)c3cccc(N)n3)c2)c1` (centres unmarked) [Compound 2499, N-[(6-amino-2-pyridyl)sulfonyl]-5-(3-methoxy-5-methyl-phenyl)-2-(2,2,4-trimethylpyrrolidin-1-yl)pyridine-3-carboxamide]: the EC30 is less than 3000 nM.
The same measure, in the same setting: the result for `CC(C)COc1cccc(-c2ccc(C(=O)NS(=O)(=O)c3ccc[nH]c3=O)c(N3C[C@@H](C)CC3(C)C)n2)c1` [Compound 2267, 6-(3-isobutoxyphenyl)-N-[(2-oxo-1H-pyridin-3-yl)sulfonyl]-2-[(4S)-2,2,4-trimethylpyrrolidin-1-yl]pyridine-3-carboxamide] reads less than 3000 nM; that for `COc1cc(-c2ccc(C(=O)NS(=O)(=O)c3cccnc3N)c(N3C[C@@H](C)CC3(C)C)n2)ccc1C` [Compound 2379, N-[(2-amino-3-pyridyl)sulfonyl]-6-(3-methoxy-4-methyl-phenyl)-2-[(4S)-2,2,4-trimethylpyrrolidin-1-yl]pyridine-3-carboxamide], less than 3000 nM.
On to `COc1ncc(-c2ccc(C(=O)NS(=O)(=O)c3cccc(N)n3)c(N3C[C@@H](C)CC3(C)C)n2)cc1C` [Compound 2086, N-[(6-amino-2-pyridyl)sulfonyl]-6-(6-methoxy-5-methyl-3-pyridyl)-2-[(4S)-2,2,4-trimethylpyrrolidin-1-yl]pyridine-3-carboxamide], for which the EC30 is less than 3000 nM.
Turning to `CCOc1cc(C)cc(-c2ccc(C(=O)NS(=O)(=O)c3cc[nH]n3)c(Oc3c(C)cc(C)cc3C)n2)n1` [Compound 2301, 6-(6-ethoxy-4-methyl-2-pyridyl)-N-(1H-pyrazol-3-ylsulfonyl)-2-(2,4,6-trimethylphenoxy)pyridine-3-carboxamide], the EC30 is less than 3000 nM.
Take `Cc1cc(O)cc(-c2ccc(C(=O)NS(=O)(=O)c3cccc(N)n3)c(N3C[C@@H](C)CC3(C)C)n2)c1` [Compound 2232, N-[(6-amino-2-pyridyl)sulfonyl]-6-(3-hydroxy-5-methyl-phenyl)-2-[(4S)-2,2,4-trimethylpyrrolidin-1-yl]pyridine-3-carboxamide]: the EC30 fell in the range of 3000 to 10000 nM.
Same read-out and setting: for `COc1cccc(CCNc2cccc(S(=O)(=O)NC(=O)c3cccnc3N3CC(C)CC3(C)C)n2)c1` (centres unmarked) [Compound 2465, N—[[6-[2-(3-methoxyphenyl)ethylamino]-2-pyridyl]sulfonyl]-2-(2,2,4-trimethylpyrrolidin-1-yl)pyridine-3-carboxamide] the value was less than 3000 nM.
With `Nc1cccc(S(=O)(=O)NC(=O)c2cccnc2Oc2ccccc2-c2nc3ccccc3o2)n1` [Compound 2544, N-[(6-amino-2-pyridyl)sulfonyl]-2-[2-(1,3-benzoxazol-2-yl)phenoxy]pyridine-3-carboxamide], the EC30 is greater than 10000 nM.

Still in this test, the particulars now being: Table 3; compounds of Table 1 as modulators of CFTR activity; protocol not stated.
On to `Cc1cc(C)c(Oc2nc(-n3nc(C(F)(F)F)cc3C)ccc2C(=O)NS(=O)(=O)c2cccc(N)n2)c(C)c1` [Compound 633, N-[(6-amino-2-pyridyl)sulfonyl]-6-[5-methyl-3-(trifluoromethyl)pyrazol-1-yl]-2-(2,4,6-trimethylphenoxy)pyridine-3-carboxamide], for which the EC30 result is “+++ (“+++” means <3 uM)”.
On the same count and under the same terms, for `Cc1cc(C)c(Oc2nc(-c3cccc(CO)c3)ccc2C(=O)NS(=O)(=O)c2cccc(N)n2)c(C)c1` [Compound 786, N-[(6-amino-2-pyridyl)sulfonyl]-6-[3-(hydroxymethyl)phenyl]-2-(2,4,6-trimethylphenoxy)pyridine-3-carboxamide] the value was “+ (“+” means greater than 10 uM)”; for `CCOc1cccc2c1CN(Cc1c(C)cc(C)cc1C)C2(C)C(=O)NS(=O)(=O)c1cccnc1OC` (centres unmarked) [Compound 648, 4-ethoxy-N-[(2-methoxy-3-pyridyl)sulfonyl]-1-methyl-2-[(2,4,6-trimethylphenyl)methyl]isoindoline-1-carboxamide], “+++ (“+++” means <3 uM)”.
On the same count and under the same terms, the result for `CC(C1CCCCC1)n1nc(C(C)(C)C)cc1C(=O)NS(=O)(=O)c1cccc(N)c1` (centres unmarked) [Compound 287, N-(3-aminophenyl)sulfonyl-5-tert-butyl-2-(1-cyclohexylethyl)pyrazole-3-carboxamide] reads “+++ (“+++” means <3 uM)”; that for `Cc1cc(C)c(CN2Cc3c(-c4ccccc4)cccc3C2C(=O)NS(=O)(=O)c2ccc[nH]c2=O)c(C)c1` (centres unmarked) [Compound 508, N-[(2-oxo-1H-pyridin-3-yl)sulfonyl]-4-phenyl-2-[(2,4,6-trimethylphenyl)methyl]isoindoline-1-carboxamide], “++ (“++” means between 3 uM and 10 uM)”; that for `Cc1ccc(C(=O)NS(=O)(=O)c2cccc(N)n2)c(N2CCC[C@@H](c3ccccc3)C2)n1` [Compound 532, N-[(6-amino-2-pyridyl)sulfonyl]-6-methyl-2-[(3S)-3-phenyl-1-piperidyl]pyridine-3-carboxamide], “++ (“++” means between 3 uM and 10 uM)”.
Still for that read-out and setting: for `CC1CN(c2nc(-c3ccncc3)ccc2C(=O)NS(=O)(=O)c2cccc(N)n2)C(C)(C)C1` (centres unmarked) [Compound 643, N-[(6-amino-2-pyridyl)sulfonyl]-6-(4-pyridyl)-2-(2,2,4-trimethylpyrrolidin-1-yl)pyridine-3-carboxamide] the value was “++ (“++” means between 3 uM and 10 uM)”; for `CC(C)CNc1cc(-c2ccc(C(=O)NS(=O)(=O)c3cccc(N)n3)c(N3CC(C)CC3(C)C)n2)ccn1` (centres unmarked) [Compound 523, N-[(6-amino-2-pyridyl)sulfonyl]-6-[2-(isobutylamino)-4-pyridyl]-2-(2,2,4-trimethylpyrrolidin-1-yl)pyridine-3-carboxamide], “+++ (“+++” means <3 uM)”; for `Cc1cc(C)c(Oc2cc(C(C)(C)C)ccc2C(=O)NS(=O)(=O)c2cccc(N)n2)c(C)c1` [Compound 102, N-[(6-amino-2-pyridyl)sulfonyl]-4-tert-butyl-2-(2,4,6-trimethylphenoxy)benzamide], “+++ (“+++” means <3 uM)”.
Consider `Cc1cc(C)c(Cn2nc(C(C)(C)C)cc2C(=O)NS(=O)(=O)c2cccc(N)c2)c(C)c1` [Compound 110, N-(3-aminophenyl)sulfonyl-5-tert-butyl-2-[(2,4,6-trimethylphenyl)methyl]pyrazole-3-carboxamide], for which the EC30 result is given as “+++ (“+++” means <3 uM)”.
Regarding `Cc1cc(-c2nc(C(C)(C)C)ccc2C(=O)NS(=O)(=O)c2cccc(N)c2)ccc1F` [Compound 177, N-(3-aminophenyl)sulfonyl-6-tert-butyl-2-(4-fluoro-3-methyl-phenyl)pyridine-3-carboxamide], the EC30 result is “++ (“++” means between 3 uM and 10 uM)”.
With `Cc1cc(C)c(CN2Cc3c(-c4ccccc4)cccc3C2C(=O)NS(=O)(=O)c2cccc(N)n2)c(C)c1` (centres unmarked) [Compound 554, N-[(6-amino-2-pyridyl)sulfonyl]-4-phenyl-2-[(2,4,6-trimethylphenyl)methyl]isoindoline-1-carboxamide], the EC30 entry is listed as “+++ (“+++” means <3 uM)”.
On the same count and under the same terms, the result for `CC(C)COc1cc(F)cc(-c2ccc(C(=O)NS(=O)(=O)c3ccc[nH]c3=O)c(N3CCC[C@@H](c4ccccc4)C3)n2)c1` [Compound 481, 6-(3-fluoro-5-isobutoxy-phenyl)-N-[(2-oxo-1H-pyridin-3-yl)sulfonyl]-2-[(3S)-3-phenyl-1-piperidyl]pyridine-3-carboxamide] reads “+++ (“+++” means <3 uM)”.

The term EC30 denotes the concentration needed for an effect of 30%.
